Results reported in the supplement of paper PMC13380429.

How the values were obtained:
Details in all cases: 72 h
[1] = test system: Calu-3; assay: cell viability relative to DMSO; higher = less toxic
[2] = test system: U2OS; assay: as above
[3] = test system: HepG2; assay: as above
[4] = test system: Caco-2; assay: as above
[5] = test system: Vero E6; assay: as above
[6] = test system: Calu-3; assay: drug sensitivity score (DSS) for viability; higher = more toxic; extreme values may be limits of the assay
[7] = test system: U2OS; assay: as above
[8] = test system: HepG2; assay: as above
[9] = test system: Caco-2; assay: as above
[10] = test system: Vero E6; assay: as above
[11] = test system: Calu-3; assay: relative viability EC50 (midpoint between 100% and the lowest measured viability); higher = less toxic
[12] = test system: U2OS; assay: as above
[13] = test system: HepG2; assay: as above
[14] = test system: Caco-2; assay: as above
[15] = test system: Vero E6; assay: as above

Structure (SMILES)	cell viability ([1]; 1 nM) [%]	cell viability ([1]; 10 nM) [%]	cell viability ([1]; 100 nM) [%]	cell viability ([1]; 1000 nM) [%]	cell viability ([1]; 10000 nM) [%]	cell viability ([2]; 1 nM) [%]	cell viability ([2]; 10 nM) [%]	cell viability ([2]; 100 nM) [%]	cell viability ([2]; 1000 nM) [%]	cell viability ([2]; 10000 nM) [%]	cell viability ([3]; 1 nM) [%]	cell viability ([3]; 10 nM) [%]	cell viability ([3]; 100 nM) [%]	cell viability ([3]; 1000 nM) [%]	cell viability ([3]; 10000 nM) [%]	cell viability ([4]; 1 nM) [%]	cell viability ([4]; 10 nM) [%]	cell viability ([4]; 100 nM) [%]	cell viability ([4]; 1000 nM) [%]	cell viability ([4]; 10000 nM) [%]	cell viability ([5]; 1 nM) [%]	cell viability ([5]; 10 nM) [%]	cell viability ([5]; 100 nM) [%]	cell viability ([5]; 1000 nM) [%]	cell viability ([5]; 10000 nM) [%]	drug sensitivity score [6]	drug sensitivity score [7]	drug sensitivity score [8]	drug sensitivity score [9]	drug sensitivity score [10]	relative viability EC50 [11] [µM]	relative viability EC50 [12] [µM]	relative viability EC50 [13] [µM]	relative viability EC50 [14] [µM]	relative viability EC50 [15] [µM]
CCN(CC)CCOCCOC(=O)C(CC)(CC)c1ccccc1 [oxelaidin]	99	95.8	94.8	94.5	99.7	96.9	92.6	94.3	107	101	104	103	104	95.6	87.1	106	85.5	95.9	107	97.3	94.2	95.9	102	99.9	104	0	0	0.3	0	0	> 10	> 10	> 10	> 10	> 10
COc1ccc(-n2nc(C(F)(F)F)cc2-c2ccc(Cl)cc2)cc1 [SC-560]	104	104	109	95.3	108	102	99.9	104	98.8	100	106	104	104	91	87	101	99.1	95.7	92.2	86.6	98.2	105	92.6	100	44.3	0	0	0.6	0.2	3	> 10	> 10	> 10	> 10	3.18
CCn1cc(C(=O)O)c(=O)c2cc(F)c(N3CCN(C)CC3)cc21 [pefloxacin]	100	97.8	97.2	83.3	99	104	94.8	98.4	96	96	88.6	100	106	99.3	94.6	94.5	80.2	104	89.5	94.1	96.8	101	94.2	95.3	90.4	0	0	0	0	0	> 10	> 10	> 10	> 10	> 10
O=c1[nH]c(=O)n([C@H]2CCCO2)cc1F (racemic) [ftorafur]	96.5	95.2	93.9	94.4	99.2	99	95.9	102	98.1	105	87.2	111	91.5	110	113	93.5	103	106	90.7	100	96.1	103	91.2	102	108	0	0	0	0	0	> 10	> 10	> 10	> 10	> 10
C/C(=C\c1ccc(C(=O)O)cc1)c1ccc2c(c1)C(C)(C)CCC2(C)C [TTNPB]	95	95.6	84.3	81.7	77.2	99.3	99.2	94.3	93.2	92.5	94.2	106	108	100	108	98.1	95.1	95	95.3	91.9	94.7	102	98.3	97.9	102	3.9	0	0	0	0	> 10	> 10	> 10	> 10	> 10
CCCCNC(=O)[C@@H]1Cc2ccccc2N1C(=O)[C@@H](N)CC [butabindide]	95.2	99.7	97.1	97.1	128	95.9	98.9	95.7	106	106	106	97.2	109	108	106	89.3	99.2	86.1	103	108	98.7	88.4	98.9	91.7	101	0	0	0	0	0	> 10	> 10	> 10	> 10	> 10
CN[C@@H](C)CC1CCCCC1 [propylhexedrine]	97.4	104	104	90.2	97.9	104	99.6	100	99.2	100	102	101	99.3	97.8	94.1	88	111	86	79.4	102	99.2	110	106	104	95.7	0	0	0	0	0	> 10	> 10	> 10	> 10	> 10
Nc1ccccc1S(N)(=O)=O [2-aminobenzenesulfonamide]	90.9	108	101	104	80.5	103	105	96.8	98.4	90.5	99	99.5	87.1	94.1	102	95.3	99.4	99.4	95.5	101	99.5	98.2	101	98.9	93.7	0.4	0	0	0	0	> 10	> 10	> 10	> 10	> 10
